From patent publication EP3426634B1, “DISUBTITUTED AZETIDINES, PYRROLIDINES, PIPERIDINES AND AZEPANES AS INHIBITORS OF MONOAMINE OXIDASE B FOR THE TREATMENT OF NEURODEGENERATIVE DISEASES” (University of Ljubljana, priority 2016, dated 2018) come the findings set out here.

The structures appear in SMILES notation.

For orientation: IC50 means the concentration at which inhibition is half-maximal.

One test has as its target T1, hMAO-B (Homo sapiens, UniProt P27338).
T1 construct: purchased Sigma Aldrich M7441; host or cells: baculovirus infected insect cells (BTI-TN-5B1-4)
T1 sequence (P27338 1-520): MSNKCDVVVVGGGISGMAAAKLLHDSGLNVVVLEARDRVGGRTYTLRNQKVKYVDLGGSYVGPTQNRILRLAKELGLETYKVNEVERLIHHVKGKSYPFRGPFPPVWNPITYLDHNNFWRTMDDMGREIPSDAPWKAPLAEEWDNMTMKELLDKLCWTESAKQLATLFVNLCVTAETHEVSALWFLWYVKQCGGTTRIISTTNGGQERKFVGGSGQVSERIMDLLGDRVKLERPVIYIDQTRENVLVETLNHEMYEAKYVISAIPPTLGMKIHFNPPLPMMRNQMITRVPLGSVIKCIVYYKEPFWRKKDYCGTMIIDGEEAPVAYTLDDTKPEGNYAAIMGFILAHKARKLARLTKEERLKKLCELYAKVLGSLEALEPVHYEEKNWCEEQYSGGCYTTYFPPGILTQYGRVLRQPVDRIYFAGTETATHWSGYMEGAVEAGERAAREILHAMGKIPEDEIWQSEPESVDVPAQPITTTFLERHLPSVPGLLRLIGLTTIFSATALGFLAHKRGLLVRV
The test is described as follows: Reversibility assay (100-fold dilution). The test is classed as biochemical. The settings on record: hMAO-B at 100-fold final concentration incubated 15 min at 37 °C with inhibitor at 10-fold the IC50, then diluted 100-fold; monitored 30 min.
Experimental: The final concentrations of all of the reagents and MAO-B were the same as in the assay described above. The reaction was monitored for 30 min. Control experiments were carried out in the same manner, where the inhibitor solution was replaced by DMSO.
With `C#CCCN1CCC(/C=C/c2ccc(F)cc2)CC1` [drawing 194], the “Activity of the enzyme after 100-fold dilution (in percentage ±SD)” value came out at 94.91 ±2.52 percentage.

On to `C#CCCCN1CCC(/C=C/c2ccc(F)cc2)CC1` [drawing 195], for which the “Activity of the enzyme after 100-fold dilution (in percentage ±SD)” value worked out at 74.01 ±2.76 percentage.

Consider `C#CCN1CCCC(Cc2ccc(F)cc2)CC1` (stereo not drawn) [drawing 196], for which the “Activity of the enzyme after 100-fold dilution (in percentage ±SD)” value is 5.55 ±0.25 percentage.

The target in the next test is T1, hMAO-B. The test is described as follows: Inhibition assay using human recombinant MAO-B (fluorimetric Amplex Red assay). The test is classed as biochemical. The settings on record: 1 mM p-tyramine, 15 min pre-incubation at 37 °C, pH 7.4, Amplex Red/horseradish peroxidase, read-out: hMAO-B IC50 [nM] ±SEM.
Experimental: The inhibitory activity of the compounds was evaluated by their effects on the production of hydrogen peroxide (H2O2) from p-tyramine, a nonspecific substrate for both hMAO isoforms. The production of the H2O2 was detected using Amplex Red reagent in the presence of horseradish peroxidase, where a highly sensitive fluorescent product, resorufin, is produced at stoichiometric amounts. Recombinant human microsomal hMAO enzymes expressed in baculovirus infected insect cells (BTI-TN-5B1-4), horse-radish peroxidase (type II, lyophilized powder), and p-tyramine hydrochloride were purchased from Sigma Aldrich.
The production of resorufin was quantified on the basis of the fluorescence generated (λex= 530 nm, λem = 590 nm) at 37 °C over a period of 20 min, during which time the fluorescence increase linearly. For control experiments, DMSO was used instead of the appropriate dilutions of the compounds in DMSO. To determine the blank value (b), phosphate-buffered solution replaced the enzyme solution. The initial velocities were calculated from the trends obtained, with each measurement carried out in duplicate. The inhibitory potencies are expressed as the residual activities (RA = (vi-b) / (vo-b), where vi is the velocity in the presence of the test compounds, and v0 the control velocity in the presence of DMSO. The IC50 values were obtained by plotting residual enzyme activities against applied inhibitor concentration, with the experimental data fitted to a Hill four parameter equation (Equation (1)) using in-house python script and Gnuplot software. Y = Min + (Max−Min)/(1+10^(∧)((LogIC50−X)×Hillcoefficient)) [formula] where X represent logarithm of inhibitor concentration, and Y the residual activity.
The capacity of the test compounds to react directly with Amplex Red was determined by adding these compounds to a solution containing all of the components except the MAO isoenzyme.
Regarding `C#CCN1CCC(/C=C/c2ccccn2)CC1`, the IC50 was 730 ± 85.6 nM.

For `C#CCN1CCC(=Cc2ccc(F)cc2)CC1`, the IC50 worked out at 48800 ± 3240 nM.

With `C#CCCN1CCC(CCc2ccc(F)cc2)CC1`, the IC50 was determined as 1700 ± 292 nM.

`C#CCN1CCC(CCc2ccc(Br)cc2)CC1`: the IC50 came out at 1440 ± 140 nM.

Regarding `C#CCN1CCCC(CCc2ccc(F)cc2)CC1` (stereo not drawn), the IC50 is 250 ± 42.4 nM.

On to `C#CCN1CCC(/C=C/c2ccc(F)cc2)C1` (stereo not drawn), for which the IC50 is 17400 ± 2040 nM.

As for `C#CCCN1CCC(/C=C/c2ccc(F)cc2)CC1` [drawing 173], the IC50 was determined as 475 ± 28.6 nM.

For `C#CCCCN1CCC(/C=C/c2ccc(F)cc2)CC1` [drawing 177], the IC50 came out at 163 ± 17 nM.

Take `C#CCN1CCCC(Cc2ccc(F)cc2)CC1` (stereo not drawn) [drawing 183]: the IC50 turned out to be 59.2 ± 6 nM.
